{"source": "patent US11136321B2", "about": "“Tricyclic compounds” (ALIGOS THERAPEUTICS, INC., priority 2019, dated 2021)", "data": [{"tested_on": "HBV", "assay": "HBV-DNA antiviral assay using HepG2.117 cells", "type": "cell-based, genotype D HBV", "details": "Hepatitis B virus, 72 h, intracellular HBV DNA by qPCR, 3 days incubation", "description": "(§1) The following assay procedure describes the HBV antiviral assay, using HepG2.117 cells, which carry a stably integrated genotype D HBV genome under the control of a Tet-off promoter, and intracellular HBV DNA quantification as endpoint. Cell viability is assessed in parallel by measuring the intracellular ATP content using ATPlite (Perkin Elmer).\n(§2) On day 0, HepG2.117 cells (which are maintained in routine cell culture with doxycycline present in the medium at a final concentration of 1 μg/mL) were seeded in 96-well plates (white with clear bottom) at a density of 2.0×10^4 cells/well (0.1 mL/well) in medium without doxycycline to induce pgRNA transcription and subsequent formation of HBV particles. The cells were incubated at 37° C. and 5% CO2.\n(§3) On day 1, medium was removed from each well, the test articles were diluted in culture medium without doxcycyline and 100 μL was added to cell culture wells (9 concentrations, 4-fold dilution). For each plate, 6 untreated (merely DMSO) wells were included. The final concentration of DMSO in the culture medium was 2%. Each plate was prepared in duplicate (one for HBV DNA extraction, one for ATPlite measurement). The cells were incubated at 37° C. and 5% CO2 for 3 days.\n(§4) On day 4, cell viability was assessed using ATPlite and cell lysates were prepared for HBV DNA extraction and subsequent quantification by qPCR.\n(§5) Medium was removed from each well and 100 μL of 0.33% NP-40 in H2O was added to each well. Plates were sealed, incubated at 4° C. for 5 mins, vortexed extensively and centrifuged briefly. Next, 35 μL of lysate was added to 65 μL QuickExtract DNA Extraction Solution (Epicentre) in a PCR plate for each well. PCR plate was incubated at 65° C. for 6 mins, 98° C. for 2 mins and finally cooled to 4° C. HBV DNA was then quantified by qPCR with HBV-specific primers and probes as specified in Table 1 using the Bio-Rad SSOAdvanced Universal Probes Supermix on a CFX96 machine (Bio-Rad). The PCR cycle program consisted of 95° C. for 3 mins, followed by 40 cycles at 95° C. for 10 sec and 60° C. for 30 sec.\n(§6) A DNA standard was prepared by dilution of an IDT gBlock corresponding to the amplicon with concentrations ranging from 10^2 to 10^8 copies/input (i.e. per 4 μL) and used to generate a standard curve by plotting Cq values vs. HBV DNA standard concentration. The quantity of HBV DNA in each sample was determined by interpolating from the standard curve.\n(§7) Cell viability was calculated as follows: % Cell viability=(luminescence value of test sample)/(average luminescence value of 2% DMSO control)×100%. HBV DNA inhibition was calculated as follows: 100−(HBV DNA copy number of test sample)/(average HBV DNA copy number of 2% DMSO control)×100%. No normalization to entecavir was required due to the excellent dynamic window of this assay. The CC50, EC50 and EC90 values were determined by dose-response curves fitted by GraphPad Prism using “log (agonist) vs. response—Variable slope”.", "units": {"EC50": "µM"}, "values": [{"compound": "O=C(c1ccc(Cl)c(Cl)c1)N1CCc2c(n3ncc(Cc4ccccc4)c3n(-c3ccccc3)c2=O)C1", "note": "[Compound 27, 5-benzyl-12-(3,4-dichlorobenzoyl)-7-phenyl-2,3,7,12-tetrazatricyclo [7.4.0.0 2,6] trideca-1(9),3,5-trien-8-one]", "EC50": "≤ 0.1"}, {"compound": "CNC(=O)c1ccc(-n2c(=O)c3c(n4ncc(Cc5ccc(C#N)cc5F)c24)CN(C(=O)c2ccc(Br)c(C#N)c2)CC3)cc1", "note": "[Compound 84, 4-[12-(4-bromo-3-cyano-benzoyl)-5-[(4-cyano-2-fluoro-phenyl)methyl]-8-oxo-2,3,7,12-tetrazatricyclo [7.4.0.0 2,6]trideca-1(9),3,5-trien-7-yl]-N-methyl-benzamide]", "EC50": "0.5 to 5"}, {"compound": "CNC(=O)c1ccc(-n2c(=O)c3c(n4ncc(Cc5ccc(OC)cc5)c24)CN(C(=O)c2ccc(Br)c(C#N)c2)CC3)cc1", "note": "[Compound 89, 4-[12-(4-bromo-3-cyano-benzoyl)-5-[(4-methoxyphenyl)methyl]-8-oxo-2,3,7,12-tetrazatricyclo [7.4.0.0 2,6]trideca-1(9),3,5-trien-7-yl]-N-methyl-benzamide]", "EC50": "≤ 0.1"}, {"compound": "CNC(=O)c1ccc(-n2c(=O)c3c(n4ncc(Nc5ccccc5)c24)CN(C(=O)c2ccc(Cl)c(Cl)c2)CC3)cc1", "note": "[Compound 39, 4-[5-anilino-12-(3,4-dichlorobenzoyl)-8-oxo-2,3,7,12-tetrazatricyclo [7.4.0.0 2,6]trideca-1(9),3,5-trien-7-yl]-N-methyl-benzamide]", "EC50": "≤ 0.1"}, {"compound": "CNC(=O)c1ccc(-n2c(=O)c3c(n4ncc(NCc5ccccc5)c24)CN(C(=O)c2ccc(Cl)c(Cl)c2)CC3)cc1", "note": "[Compound 42, 4-[5-(benzylamino)-12-(3,4-dichlorobenzoyl)-8-oxo-2,3,7,12-tetrazatricyclo [7.4.0.0 2,6]trideca-1(9),3,5-trien-7-yl]-N-methyl-benzamide]", "EC50": "≤ 0.1"}, {"compound": "CNC(=O)c1ccc(-n2c(=O)c3c(n4ncc(Cc5ccc(OC(F)(F)F)cc5)c24)CN(C(=O)c2ccc(Cl)c(Cl)c2)CC3)cc1", "note": "[Compound 36, 4-[12-(3,4-dichlorobenzoyl)-8-oxo-5-[[4-(trifluoromethoxy)phenyl]methyl]-2,3,7,12-tetrazatricyclo [7.4.0.0 2,6]trideca-1(9),3,5-trien-7-yl]-N-methyl-benzamide]", "EC50": "0.1 to 0.5"}, {"compound": "Cc1cnn2c3c(c(=O)n(-c4ccccc4)c12)CCN(C(=O)c1ccc(Br)c(Cl)c1)C3", "note": "[Compound 10, 12-(4-bromo-3-chlorobenzoyl)-5-methyl-7-phenyl-2,3,7,12-tetraazatricyclo[7.4.0.0^[2,6]]trideca-1(9),3,5-trien-8-one]", "EC50": "0.1 to 0.5"}, {"compound": "CNC(=O)c1ccc(-n2c(=O)c3c(n4ncc(Nc5ccccc5)c24)CN(C(=O)c2ccc(Br)c(Cl)c2)CC3)cc1", "note": "[Compound 40, 4-[5-anilino-12-(4-bromo-3-chloro-benzoyl)-8-oxo-2,3,7,12-tetrazatricyclo [7.4.0.0 2,6]trideca-1(9),3,5-trien-7-yl]-N-methyl-benzamide]", "EC50": "≤ 0.1"}, {"compound": "COc1ccc(-n2c(=O)c3c(n4ncc(NS(=O)(=O)Cc5ccccc5)c24)CN(C(=O)c2ccc(Br)c(Cl)c2)CC3)cc1", "note": "[Compound 33, N-[12-(4-bromo-3-chloro-benzoyl)-7-(4-methoxyphenyl)-8-oxo-2,3,7,12-tetrazatricyclo [7.4.0.0 2,6]trideca-1(9),3,5-trien-5-yl]-1-phenyl-methanesulfonamide]", "EC50": "0.5 to 5"}, {"compound": "CC(C)c1cnn2c3c(c(=O)n(-c4ccccc4)c12)CCN(C(=O)c1ccc(Br)c(Cl)c1)C3", "note": "[Compound 13, 12-(4-bromo-3-chlorobenzoyl)-5-isopropyl-7-phenyl-2,3,7,12-tetraazatricyclo[7.4.0.0^[2,6]]trideca-1(9),3,5-trien-8-one]", "EC50": "0.5 to 5"}, {"compound": "O=C(c1ccc(Br)c(Cl)c1)N1CCc2c(n3ncc(Cc4ccccc4)c3n(-c3ccc(-n4cccn4)cc3)c2=O)C1", "note": "[Compound 77, 5-benzyl-12-(4-bromo-3-chloro-benzoyl)-7-(4-pyrazol-1-ylphenyl)-2,3,7,12-tetrazatricyclo [7.4.0.0 2,6] trideca-1(9),3,5-trien-8-one]", "EC50": "> 5"}, {"compound": "CNC(=O)c1ccc(-n2c(=O)c3c(n4ncc(Cc5ccc(C#N)cc5F)c24)CN(C(=O)c2ccc(Br)c(Cl)c2)CC3)cc1", "note": "[Compound 85, 4-[12-(4-bromo-3-chloro-benzoyl)-5-[(4-cyano-2-fluoro-phenyl)methyl]-8-oxo-2,3,7,12-tetrazatricyclo [7.4.0.0 2,6]trideca-1(9),3,5-trien-7-yl]-N-methyl-benzamide]", "EC50": "≤ 0.1"}, {"compound": "N#Cc1cc(C(=O)N2CCc3c(n4ncc(Cc5ccccc5)c4n(-c4ccc(C(=O)NC5CC5)cc4)c3=O)C2)ccc1Br", "note": "[Compound 76, 4-[5-benzyl-12-(4-bromo-3-cyano-benzoyl)-8-oxo-2,3,7,12-tetrazatricyclo [7.4.0.0 2,6]trideca-1(9),3,5-trien-7-yl]-N-cyclopropyl-benzamide]", "EC50": "> 5"}, {"compound": "CNC(=O)c1ccc(-n2c(=O)c3c(n4ncc(Cc5ccc(OC)cc5)c24)CN(C(=O)c2ccc(Br)c(Cl)c2)CC3)cc1", "note": "[Compound 88, 4-[12-(4-bromo-3-chloro-benzoyl)-5-[(4-methoxyphenyl)methyl]-8-oxo-2,3,7,12-tetrazatricyclo [7.4.0.0 2,6]trideca-1(9),3,5-trien-7-yl]-N-methyl-benzamide]", "EC50": "≤ 0.1"}, {"compound": "CNC(=O)c1ccc(-n2c(=O)c3c(n4ncc(NC(C)c5ccccc5)c24)CN(C(=O)c2ccc(Br)c(C#N)c2)CC3)cc1", "note": "(stereo not shown) [Compound 83, 4-[12-(4-bromo-3-cyano-benzoyl)-8-oxo-5-(1-phenylethylamino)-2,3,7,12-tetrazatricyclo [7.4.0.0 2,6]trideca-1(9),3,5-trien-7-yl]-N-methyl-benzamide]", "EC50": "0.1 to 0.5"}, {"compound": "CNC(=O)c1ccc(-n2c(=O)c3c(n4ncc([C@H](C)c5ccccc5)c24)CN(C(=O)c2ccc(Br)c(C#N)c2)CC3)cc1", "note": "(stereo in doubt) [Compound 57, 4-[12-(4-bromo-3-cyano-benzoyl)-8-oxo-5-[rac-(1R)-1-phenylethyl]-2,3,7,12-tetrazatricyclo [7.4.0.0 2,6]trideca-1(9),3,5-trien-7-yl]-N-methyl-benzamide]", "EC50": "≤ 0.1"}, {"compound": "N#Cc1cc(C(=O)N2CCc3c(n4ncc(Cc5ccccc5)c4n(-c4ccc(-n5cccn5)cc4)c3=O)C2)ccc1Br", "note": "[Compound 78, 5-[5-benzyl-8-oxo-7-(4-pyrazol-1-ylphenyl)-2,3,7,12-tetrazatricyclo [7.4.0.0 2,6]trideca-1(9),3,5-triene-12-carbonyl]-2-bromo-benzonitrile]", "EC50": "> 5"}, {"compound": "CNC(=O)c1ccc(-n2c(=O)c3c(n4ncc(Cc5ccccc5)c24)CN(C(=O)c2ccc(Br)c(C#N)c2)[C@@H](C)C3)cc1", "note": "(stereo in doubt) [Compound 80, N-methyl-4-[rac-(11S)-5-benzyl-12-(4-bromo-3-cyano-benzoyl)-11-methyl-8-oxo-2,3,7,12-tetrazatricyclo [7.4.0.0 2,6]trideca-1(9),3,5-trien-7-yl] benzamide]", "EC50": "0.1 to 0.5"}]}, {"tested_on": "HBV", "assay": "HBV-DNA antiviral assay using HepG2.117 cells", "type": "cell-based, genotype D HBV", "details": "intracellular HBV DNA by qPCR, 3 days incubation", "description": "as §1, §2, §3, §4, §5, §6, §7", "units": {"EC50": "µM"}, "values": [{"compound": "Cc1cc2n(-c3ccccc3)c(=O)c3c(n2n1)CN(C(=O)c1ccc(Br)c(F)c1)CC3", "note": "[Compound 7, 12-(4-bromo-3-fluorobenzoyl)-4-methyl-7-phenyl-2,3,7,12-tetraazatricyclo[7.4.0.0^[2,6]]trideca-1(9),3,5-trien-8-one]", "EC50": "> 5"}, {"compound": "COc1ccc(-n2c(=O)c3c(n4ncc(Nc5ccccc5)c24)CN(C(=O)c2ccc(Br)c(Cl)c2)CC3)cc1", "note": "[Compound 32, 12-(4-bromo-3-chlorobenzoyl)-7-(4-methoxyphenyl)-5-(phenylamino)-2,3,7,12-tetraazatricyclo[7.4.0.0^[2,6]]trideca-1(9),3,5-trien-8-one]", "EC50": "≤ 0.1"}, {"compound": "CC(C)CC(=O)Nc1cnn2c3c(c(=O)n(-c4ccccc4)c12)CCN(C(=O)c1ccc(Cl)c(Cl)c1)C3", "note": "[Compound 17, N-[12-(3,4-dichlorobenzoyl)-8-oxo-7-phenyl-2,3,7,12-tetraazatricyclo[7.4.0.0^[2,6]]trideca-1(9),3,5-trien-5-yl]-3-methylbutanamide]", "EC50": "> 5"}, {"compound": "COc1ccc(-n2c(=O)c3c(n4ncc(NCc5ccccc5)c24)CN(C(=O)c2ccc(Cl)c(Cl)c2)CC3)cc1", "note": "[Compound 25, 5-(benzylamino)-12-(3,4-dichlorobenzoyl)-7-(4-methoxyphenyl)-2,3,7,12-tetraazatricyclo[7.4.0.0^[2,6]]trideca-1(9),3,5-trien-8-one]", "EC50": "≤ 0.1"}]}]}
